Data taken from patent US11358947B2, “Substituted 2-acylamino-cycloalkylthiophene-3-carboxylic acid arylamides as inhibitors of calcium-activated chloride channel TMEM16A” (THE REGENTS OF THE UNIVERSITY OF CALIFORNIA, priority 2017, dated 2022).
“Also recorded” adds a separate entry of the source.

Key:
[1] = system: non-TMEM16A Ca2+-activated Cl- channel in HT-29 cells; assay: Non-TMEM16A CaCC plate reader assay in HT-29 cells expressing YFP; format: cell-based; settings: Homo sapiens, non-TMEM16 anion conductance, fluorescence plate reader assay
Description: (§1) Concentration-dependent inhibition of TMEM16A measured by short-circuit current assay; TMEM16B and non-TMEM16 anion conductance measured using a fluorescence plate reader assay using FRT and HT-29 cells respectively; cell viability measured in FRT null cells.
(§2) We further assayed the compound potency on endogenous non-TMEM16A. Ca^2+-activated Cl^− channel in HT-29 cells.
Plate reader assays of chloride channel function, CFTR inhibition was assayed as described. […] Activity of non-TMEM16A CaCC was assayed as described in HT-29 cells expressing YFP.

TMEM16B = molecular target: T1, TMEM16B (Homo sapiens, UniProt Q9NQ90); assay: TMEM16B fluorescence plate reader assay in FRT cells; format: cell-based
T1 construct: expressed in transfected cells; host or cells: Fischer Rat Thyroid (FRT) cells co-expressing YFP
T1 sequence (Q9NQ90 1-998): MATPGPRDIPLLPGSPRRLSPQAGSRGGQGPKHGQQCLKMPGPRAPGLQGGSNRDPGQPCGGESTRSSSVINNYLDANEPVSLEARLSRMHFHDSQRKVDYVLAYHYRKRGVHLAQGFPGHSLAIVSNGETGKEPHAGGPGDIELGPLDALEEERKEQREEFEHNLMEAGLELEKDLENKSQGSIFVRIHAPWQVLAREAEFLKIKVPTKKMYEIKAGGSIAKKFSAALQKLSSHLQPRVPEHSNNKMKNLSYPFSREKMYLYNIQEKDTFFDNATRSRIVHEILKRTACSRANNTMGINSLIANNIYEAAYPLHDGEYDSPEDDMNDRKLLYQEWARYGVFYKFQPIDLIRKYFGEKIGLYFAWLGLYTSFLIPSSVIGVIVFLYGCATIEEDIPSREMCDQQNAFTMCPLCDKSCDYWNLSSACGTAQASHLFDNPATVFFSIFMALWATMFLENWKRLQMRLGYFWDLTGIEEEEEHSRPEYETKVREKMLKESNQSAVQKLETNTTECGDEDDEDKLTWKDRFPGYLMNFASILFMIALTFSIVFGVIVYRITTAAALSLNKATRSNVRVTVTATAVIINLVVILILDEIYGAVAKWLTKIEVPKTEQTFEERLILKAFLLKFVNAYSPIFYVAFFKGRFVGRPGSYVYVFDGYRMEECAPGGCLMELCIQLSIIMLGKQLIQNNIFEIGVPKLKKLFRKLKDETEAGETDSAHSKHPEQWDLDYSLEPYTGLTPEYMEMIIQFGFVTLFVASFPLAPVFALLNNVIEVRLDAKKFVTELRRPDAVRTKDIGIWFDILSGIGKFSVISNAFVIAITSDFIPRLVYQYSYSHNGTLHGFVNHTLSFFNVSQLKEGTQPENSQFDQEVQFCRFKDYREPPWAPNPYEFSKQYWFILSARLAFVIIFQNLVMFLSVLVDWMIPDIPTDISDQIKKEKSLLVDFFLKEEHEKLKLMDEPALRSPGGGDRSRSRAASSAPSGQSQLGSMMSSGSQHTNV
Description: as §1, §2
TMEM16A functional assay. TMEM16A functional plate-reader assay was done as previously described. […] Test compounds (0.5 μl in DMSO) were added to each well at specified concentration. […] The initial rate of I− influx following each of the solution additions was computed from fluorescence data by nonlinear regression. TMEM16B activity was assayed similarly as described using FRT cells co-expressing YFP and TMEM16B.

[2] = In vitro metabolic stability with rat liver microsomes and NADPH; format: in vitro ADME
Description: (3B) LC/MS traces showing total ion counts as a function of incubation time.
These compounds were incubated with rat liver microsomes and NADPH, and non-metabolized compounds were quantified by ESI-LCMS. […] It is speculated that Ani-9 could be oxidized at the aryl methyl or N—N bond; or hydrolyzed at the amide or hydrazone linkages.
Compounds (each 10 uM) were incubated for specific time points (2, 5, 15, 30, 60, 180 min) with shaking at 37° C. with rat liver microsomes (1 mg protein/mL, Sigma-Aldrich, St. Louis, Mo.) in potassium phosphate butler (100 mM) containing 1 mM NADPH. The mixture was then chilled on ice, and 0.5 mL of ice-cold ethyl acetate was added. Samples were centrifuged for 15 min at 3000 RPM. The supernatant was evaporated to dryness, and the residue was dissolved in 80 μL of mobile phase (acetonitrile:/water, 3:1, containing 0.1% formic acid) for LC/MS. Reverse-phase HPLC separation was carried out using a Waters C18 column (2.1 mm×100 mm, […]) equipped with a solvent delivery system (Waters model 2690, Milford, Mass.).

[3] = Pharmacokinetics in rats, serum concentration after IP or oral dosing; format: in vivo; settings: rat
Description: The pharmacokinetics of compounds according to certain embodiments was studied in rats. […] After treatments blood samples were collected by tail vein puncture at specified time points (15, 30, 60, 120 and 180 min). Serum was separated by centrifuging blood samples at 5000 rpm for 15 min. […] The aliquot was then diluted to a total of 2 mL in PBS. A C18 solid-phase extraction (SPE) column (Thermo Fisher, Waltham, Mass.) was conditioned with methanol (2 mL) and PBS (2 mL). The aliquot was loaded onto the conditioned SPE column, and washed with PBS (2 mL) followed by water (2 mL), and the column then dried under vacuum for 5 min. Analytes were eluted with ethyl acetate (3 mL), and concentrated by rotary evaporation. The residues were reconstituted into methanol (150 μL), and then analyzed using a hybrid quadrupole Q-Exactive Orbitrap mass analyzer (Thermo Fisher, Waltham, Mass.), with an electrospray ionization source, employing parallel-reaction monitoring (PRM) to provide high analytical sensitivity.

mouse ileum = assay: Ex vivo intestinal contractility of mouse ileum; settings: increasing concentrations added to bath
Description: The effect of a compound according to one embodiment on intestinal contractility was determined in an ex vivo preparation of mouse ileum. Adult mice (CD1 genetic background) were euthanized by avertin overdose (200 mg/kg, 2,2,2-tribromethanol, Sigma-Aldrich) and ileal segments of ˜2 cm length were isolated and washed with Krebs-Henseleit buffer (pH 7.4, in mM: 118 NaCl, 4.7 KCl, 1.2 MgSO4, 1.2 KH2PO4, 25 NaHCO3, 2.5 CaCl2, 11 D-glucose). […] Tissues were stabilized for 60 min with resting tension of 0.5 g and solutions were changed every 15 min.

[4] = system: rat made hypertensive with phenylephrine; assay: Blood pressure in anesthetized rat made hypertensive with phenylephrine; format: in vivo; settings: phenylephrine 0.25 mg IV, then 0.3 mg compound IV, femoral artery catheter
Description: TMEM16A is expressed in vascular smooth muscle and its inhibition may reduce blood pressure. […] Blood pressure was measured by femoral artery catheter.

Structure (SMILES) | IC50 [1] [nM] | IC50 (TMEM16B) [nM] | Compound remaining ([2]; rat liver microsomes + NADPH, 10 uM, 180 min) [%] | Metabolic stability compared to Ani-9 (in words) ([2]; time course of compound degradation, rat liver microsomes) | Toxic effect (in words) ([3]; 4 mg/kg IP or oral) | Serum concentration ([3]; 4 mg/kg intraperitoneal, for up to 2 h) | Peak serum concentration ([3]; 4 mg/kg intraperitoneal, peak at 60 min) [µM] | Serum concentration ([3]; 4 mg/kg oral, for 3 h) | Peak serum concentration ([3]; 4 mg/kg oral, peak at 2 h) [µM] | Detectability in serum (in words) ([3]; after intraperitoneal (IP) or oral administration (PO)) | Effect on spontaneous isometric contractions of ileum (mouse ileum) | Effect on blood pressure [4]
Cc1ccccc1NC(=O)c1c(NC(=O)C(F)(F)F)sc2c1CCCCC2 [Compound 6aa, 2-(2,2,2-Trifluoro-acetylamino)-5,6,7,8-tetrahydro-4H-cyclohepta[b]thiophene-3-carboxylic acid o-tolylamide] | 4000 | 1400 |  |  |  |  |  |  |  |  |  | 
Cc1ccccc1NC(=O)c1c(NC(=O)C(F)(F)Br)sc2c1CCCCC2 [Compound 6bm, 2-(2-Bromo-2,2-difluoro-acetylamino)-5,6,7,8-tetrahydro-4H-cyclohepta[b]thiophene-3-carboxylic acid o-tolylamide] |  |  | ~30 | remarkably greater stability | No toxic effect was seen | greater than 3.5 μM | 6.5 | greater than 0.5 μM | 1.9 | detectable at pharmacologically relevant concentrations | strongly inhibited; also recorded: suppression of isometric smooth muscle contractions | acute reduction in blood pressure
